Measurements: patent publication US8067599B2 (Hoffman-La Roche Inc., priority 2006, dated 2011)

Columns and labels:
[1] = molecular target: T1, fusion protein corresponding to mouse Abl (27-end) (Mus musculus, UniProt P00520); test: IC50 determination for inhibitors of Abl kinase (IMAP fluorescence polarization); format: biochemical; settings: 22.8 uM ATP, 37° C., 60 minutes; read-out: IC50 Abl kinase inhibition
T1 construct: fusion protein corresponding to mouse Abl (27-end)
Method: Abl assay was done using fusion protein corresponding to mouse Abl (27-end), fluorescein labeled peptide substrate (with a sequence of EAIYAAPFAKKK) and quantified by Molecular Devices' IMAP fluorescence polarization technology. Compounds were tested in serially diluted concentrations in 384 well plates. Kinase reaction was performed in KAB Buffer (10 mM HEPES, pH 7, 50 mM NaCl, 5 mM MgCl2, 1 mM DTT, 0.1 mM NaVO4, 0.02% BSA), in the presence of 22.8 uM ATP, incubated at 37° C. for 60 minutes. Reaction was stopped by IMAP bead mix (at 1:400 diluted). After incubation at room temperature for 3 hours, the reaction product was analyzed on LJL Acquest (excitation 485 nm and Emission 530 nm).
FP reading (in mP) was used to calculate reaction rate. The assay was semi automated by Tomtec Quadra workstation.

[2] = molecular target: human recombinant PDGFR beta (Homo sapiens, UniProt P09619); test: IC50 determination for inhibitors of PDGFR kinase (IMAP fluorescence polarization); format: biochemical; settings: 48 uM ATP, room temperature, 60 minutes, read-out: IC50 PDGFR kinase inhibition
human recombinant PDGFR beta, sequence (P09619 33-1106): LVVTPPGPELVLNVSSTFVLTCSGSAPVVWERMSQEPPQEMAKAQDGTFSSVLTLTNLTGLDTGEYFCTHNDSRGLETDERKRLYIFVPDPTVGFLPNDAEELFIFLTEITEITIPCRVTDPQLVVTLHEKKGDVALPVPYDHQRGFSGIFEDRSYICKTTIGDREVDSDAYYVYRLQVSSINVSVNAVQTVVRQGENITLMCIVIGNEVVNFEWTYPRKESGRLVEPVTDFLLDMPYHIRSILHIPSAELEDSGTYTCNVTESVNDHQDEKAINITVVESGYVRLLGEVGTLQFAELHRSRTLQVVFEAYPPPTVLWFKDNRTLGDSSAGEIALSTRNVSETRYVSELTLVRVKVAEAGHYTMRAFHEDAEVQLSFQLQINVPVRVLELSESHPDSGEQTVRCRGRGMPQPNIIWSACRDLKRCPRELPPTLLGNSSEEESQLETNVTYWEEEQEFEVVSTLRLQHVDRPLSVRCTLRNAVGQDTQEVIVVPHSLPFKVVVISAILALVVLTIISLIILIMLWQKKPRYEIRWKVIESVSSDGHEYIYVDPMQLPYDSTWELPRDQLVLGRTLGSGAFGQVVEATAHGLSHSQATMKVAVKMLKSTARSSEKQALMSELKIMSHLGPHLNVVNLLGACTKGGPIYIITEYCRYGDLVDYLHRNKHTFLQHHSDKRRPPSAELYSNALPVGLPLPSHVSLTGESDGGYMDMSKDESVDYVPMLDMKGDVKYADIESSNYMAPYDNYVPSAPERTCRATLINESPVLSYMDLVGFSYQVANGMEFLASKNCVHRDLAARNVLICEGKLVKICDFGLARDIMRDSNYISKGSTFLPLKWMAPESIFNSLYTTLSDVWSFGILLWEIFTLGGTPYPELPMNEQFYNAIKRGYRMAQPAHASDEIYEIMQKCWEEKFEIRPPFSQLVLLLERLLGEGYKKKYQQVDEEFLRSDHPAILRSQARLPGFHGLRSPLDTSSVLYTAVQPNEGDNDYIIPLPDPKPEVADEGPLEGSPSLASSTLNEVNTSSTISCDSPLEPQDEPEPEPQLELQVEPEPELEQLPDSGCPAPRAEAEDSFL
Method: PDGFR assay was carried out with human recombinant PDGFR beta, fluorescein labeled peptide substrate (with a peptide sequence of ALTSNQEYLDLSMPL) and test compounds (in serial dilution) using 384-well plates. Kinase reaction was performed in MOPS buffer (20 mM MOPS pH 7.1, 5 mM Sodium Acetate, 6.25 mM MgCl2, 0.5 mM EDTA, 1 mM DTT, 0.04 mM NaVO4, 0.02% BSA), in the presence of 48 uM ATP, incubated at room temperature for 60 minutes. Reaction was stopped by IMAP Bead Binding System (Molecular Devices). After incubation at room temperature for 2 hours, the reaction product was analyzed on LJL Acquest.
(§1) FP reading (in mP) was used to calculate reaction rate. The assay was semi-automated by Tomtec Quadra workstation.

[3] = molecular target: T2, mouse full-length Src protein (Mus musculus, UniProt P05480); test: IC50 determination for inhibitors of Src kinase (IMAP fluorescence polarization); format: biochemical; settings: 24 uM ATP, 37° C., 60 minutes; read-out: IC50 Src kinase inhibition
T2 construct: mouse full-length Src protein
T2 sequence (P05480 whole entry): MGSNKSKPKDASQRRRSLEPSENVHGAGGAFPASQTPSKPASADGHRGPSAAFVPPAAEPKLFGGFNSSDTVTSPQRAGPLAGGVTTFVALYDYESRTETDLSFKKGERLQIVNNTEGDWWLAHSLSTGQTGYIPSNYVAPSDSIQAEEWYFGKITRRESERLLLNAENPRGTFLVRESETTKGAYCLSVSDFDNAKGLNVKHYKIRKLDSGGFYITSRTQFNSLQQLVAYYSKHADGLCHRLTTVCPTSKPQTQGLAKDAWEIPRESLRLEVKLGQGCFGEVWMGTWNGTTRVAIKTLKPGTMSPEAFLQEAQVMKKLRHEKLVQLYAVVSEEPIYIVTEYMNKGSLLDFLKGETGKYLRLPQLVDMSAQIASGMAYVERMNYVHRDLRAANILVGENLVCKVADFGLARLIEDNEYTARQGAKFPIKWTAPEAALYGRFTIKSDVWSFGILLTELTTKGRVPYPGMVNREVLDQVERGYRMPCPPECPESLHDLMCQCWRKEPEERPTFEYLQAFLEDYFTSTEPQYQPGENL
Method: Src assay was done using mouse full-length Src protein, fluorescein labeled peptide substrate (with a sequence of KVEKIGEGTYGVVYK) and quantified by Molecular Devices' IMAP fluorescence polarization technology. Compounds were tested in serially diluted concentrations in 384 well plates. Kinase reaction was performed in KAB Buffer (10 mM HEPES, pH 7, 50 mM NaCl, 5 mM MgCl2, 1 mM DTT, 0.1 mM NaVO4, 0.02% BSA), in the presence of 24 uM ATP, incubated at 37° C. for 60 minutes. Reaction was stopped by IMAP bead mix (at 1:400 dilution). After incubation at room temperature for 2 hours, the reaction product was analyzed on LJL Acquest (excitation 485 nm and Emission 530 nm).
as §1

[4] = system: HCT 116 cells; test: CellTiter-Glo assay in HCT 116 cells (antiproliferative activity); format: cell-based; settings: Homo sapiens, HCT-116, 120 h, cell viability after 5 days
Method: The CellTiter-Glo™ Luminescent Cell Viability Assay (Promega) is a homogeneous method of determining the number of viable cells in culture based on quantitation of the ATP present, which signals the presence of metabolically active cells.
HCT 116 cells (human colon carcinoma, ATCC-No. CCl-247) were cultivated in RPMI 1640 medium with GlutaMAX™ 1 (Invitrogen, Cat-No. 61870-010), 5% Fetal Calf Serum (FCS, Sigma Cat-No. F4135 (FBS)); 100 Units/ml penicillin/100 μg/ml streptomycin (=Pen/Strep from Invitrogen Cat. No. 15140). For the assay the cells were seeded in 384 well plates, 1000 cells per well, in the same medium. The next day the test compounds were added in various concentrations ranging from 30 μM to 0.0015 μM (10 concentrations, 1:3 diluted). After 5 days the CellTiter-Glo™ assay was done according to the instructions of the manufacturer (CellTiter-Glo™ Luminescent Cell Viability Assay, from Promega). In brief: the cell-plate was equilibrated to room temperature for approximately 30 minutes and than the CellTiter-Glo™ reagent was added. The contents were carefully mixed for 15 minutes to induce cell lysis. After 45 minutes the luminescent signal was measured in Victor 2, (scanning multiwell spectrophotometer, Wallac).
• Medium: RPMI 1640 with GlutaMAX™ 1 (Invitrogen, Cat-No. 61870), 5% FCS (Sigma Cat.-No. F4135), Pen/Strep (Invitrogen, Cat No. 15140). • HCT116 (ATCC-No. CCl-247): 1000 cells in 60 μl per well of 384 well plate (Greiner 781098, μClear-plate white) • After seeding incubate plates 24 h at 37° C., 5% CO2 2nd. Day: Induction (Treatment with Compounds, 10 Concentrations):
In order to achieve a final concentration of 30 μM as highest concentration 3.5 μl of 10 mM compound stock solution were added directly to 163 μl media. Then step e) of the dilution procedure described below, was followed.

T1 sequence (P00520 27-1123 limits assumed): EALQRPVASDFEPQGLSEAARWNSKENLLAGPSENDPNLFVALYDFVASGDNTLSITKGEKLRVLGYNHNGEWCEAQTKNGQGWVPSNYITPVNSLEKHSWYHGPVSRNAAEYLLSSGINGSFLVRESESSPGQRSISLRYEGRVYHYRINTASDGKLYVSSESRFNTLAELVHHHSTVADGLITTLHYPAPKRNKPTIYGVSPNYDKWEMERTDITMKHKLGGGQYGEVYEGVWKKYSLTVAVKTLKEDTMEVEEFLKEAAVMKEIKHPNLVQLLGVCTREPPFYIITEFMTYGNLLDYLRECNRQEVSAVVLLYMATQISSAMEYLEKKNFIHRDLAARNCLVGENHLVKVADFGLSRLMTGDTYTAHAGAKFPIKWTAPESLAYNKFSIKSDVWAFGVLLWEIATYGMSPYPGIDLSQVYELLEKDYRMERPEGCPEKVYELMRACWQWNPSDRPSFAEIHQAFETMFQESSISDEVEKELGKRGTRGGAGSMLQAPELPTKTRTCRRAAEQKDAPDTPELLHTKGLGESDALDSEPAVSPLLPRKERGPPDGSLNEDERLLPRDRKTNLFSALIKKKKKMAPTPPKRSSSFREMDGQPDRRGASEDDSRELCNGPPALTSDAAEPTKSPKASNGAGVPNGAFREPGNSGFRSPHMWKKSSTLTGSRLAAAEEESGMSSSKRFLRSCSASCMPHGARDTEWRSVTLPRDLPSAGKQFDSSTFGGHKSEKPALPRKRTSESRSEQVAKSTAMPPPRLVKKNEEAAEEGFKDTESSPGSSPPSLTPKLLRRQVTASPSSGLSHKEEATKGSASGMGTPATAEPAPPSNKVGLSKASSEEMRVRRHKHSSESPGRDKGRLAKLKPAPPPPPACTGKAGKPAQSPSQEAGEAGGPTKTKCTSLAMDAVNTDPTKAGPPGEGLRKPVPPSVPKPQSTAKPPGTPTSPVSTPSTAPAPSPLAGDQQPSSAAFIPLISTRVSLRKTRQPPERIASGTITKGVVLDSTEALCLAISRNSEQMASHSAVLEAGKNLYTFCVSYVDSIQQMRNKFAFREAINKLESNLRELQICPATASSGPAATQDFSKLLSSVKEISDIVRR

- IC50 [1]: 5 to 1000 nM
- IC50 [2]: 14 nM
- IC50 [3]: 5 to 1000 nM
- IC50 [4]: 0.1 to 10 µM
Compound: O=C(Nc1ccc(Cl)c(C(=O)Nc2cnc3[nH]ccc3c2)c1)c1cccc(-c2ccccc2)c1 [Example 2-1, Biphenyl-3-carboxylic acid[4-chloro-3-(1H-pyrrolo[2,3-b]pyridin-5-ylcarbamoyl)-phenyl]-amide]
